Experimental data published in patent US12532889B2, “Herbicidal compositions comprising glufosinate” (BASF SE, priority 2023, dated 2026).
Where “and” joins values, the source holds several entries; their conditions need not be identical. Identical values can stand only once.

Columns and labels:
Test in all cases: Post-emergence application in field trials (Example A)
Type in all cases: in vivo
GALAP (Galium aparine) = settings: Table 3.1; GALAP growth stage 11-16, height 2-20 cm; A-1 18, B-2 500 g ai/ha; 28 DAT; water 100 l/ha
How it was run: (§1)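 Field plots with natural or seeded weeds were treated post-emergence, solo or in mixtures. Damage was rated visually at stated days after treatment on a 0–100% scale against untreated plants; expected additive mixture activity calculated by the Colby method.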

[1] = test system: AMASP (Amaranthus spinosus); settings: Table 5.5; AMASP growth stage 72; A-1 25, B-6 252 g ai/ha; 28 DAT; water 400 l/ha
How it was run: as §1

[2] = test system: DIGHO (Digitaria horizontalis); settings: Table 1.4, DIGHO growth stage 24, 14 DAT, water 200 l/ha
How it was run: as §1

GLXMA (Glycine max) = settings: 21 DAT; A-1 12.5 g ai/ha; growth stage 13; height 5-10 cm
How it was run: as §1

[3] = test system: LOLMU (Lolium multiflorum)
How it was run: as §1

[4] = test system: POLCO (Polygonum convolvulus); settings: Table 3.2, A-1 12.5, B-2 500 g ai/ha, 14 DAT, water 100 l/ha
How it was run: as §1

[5] = test system: COMDI (Commelina diffusa); settings: Table 5.3; COMDI growth stage 76-77; A-1 25, B-6 252 g ai/ha; 28 DAT; water 300 l/ha
How it was run: as §1

[6] = test system: HORVW (Hordeum vulgare (winter barley))
How it was run: as §1

[7] = test system: CYPES (Cyperus esculentus); settings: 21 DAT, water 140 l/ha
How it was run: as §1

[8] = test system: HORVS (Hordeum vulgare (spring barley)); settings: Table 3.1, HORVS volunteer barley, growth stage 22-24, height 32-35 cm, 28 DAT, water 100 l/ha
How it was run: as §1

[9] = test system: ECHCG (Echinocloa crus-galli)
How it was run: as §1

ZEAMX (Zea mays) = test system: ZEAMX (Zea mays)
How it was run: as §1

AVEFA (Avena fatua) = settings: Table 3.1; AVEFA growth stage 22-24, height 18-29 cm; A-1 12.5, B-2 500 g ai/ha; 28 DAT; water 100 l/ha
How it was run: as §1

CYPIR (Cyperus iria) = settings: Table 2.1, CYPIR growth stage 13-14, height 3-5 cm, 14 DAT, water 300 l/ha
How it was run: as §1

ERISS (Erigeron sp.) = settings: Table 1.8, ERISS height 30-50 cm, 14 DAT, water 200 l/ha
How it was run: as §1

[10] = test system: DIGSA (Digitaria sanguinalis); settings: for % Herbicidal activity: A-1 12.5 g ai/ha, growth stage 22
How it was run: as §1

[11] = test system: CYPKH (Cyperus kyllingia var. humilis); settings: Table 5.4; CYPKH growth stage 76-77, height 13-14 cm; A-1 25, B-6 252 g ai/ha; 28 DAT; water 400 l/ha
How it was run: as §1

[12] = test system: PASSC (Paspalum scrobiculatum); settings: Table 5.2, A-1 25, B-6 252 g ai/ha, 21 DAT, water 450 l/ha
How it was run: as §1

[13] = 7 DAT, A-1 12.5 g ai/ha, growth stage 23-29, height 20-25 cm
[14] = 7 DAT, A-1 18 g ai/ha, growth stage 23-29, height 20-25 cm
[15] = 21 DAT, A-1 12.5 g ai/ha, growth stage 23-29, height 20-25 cm
[16] = 21 DAT, A-1 18 g ai/ha, growth stage 23-29, height 20-25 cm
[17] = 21 DAT, A-1 12.5 g ai/ha, growth stage 23-30, height 15-20 cm
[18] = 21 DAT, A-1 18 g ai/ha, growth stage 23-30, height 15-20 cm
[19] = 42 DAT, A-1 18 g ai/ha, growth stage 15-16, height 27-33 cm

**Q.** Which results are given for `CCOC(=O)COc1ccccc1Oc1nc(-n2c(=O)cc(C(F)(F)F)n(C)c2=O)c(F)cc1Cl` [A-1, ethyl 2-[2-[[3-chloro-5-fluoro-6-[3-methyl-2,6-dioxo-4-(trifluoromethyl)pyrimidin-1-yl]-2-pyridyl]oxy]phenoxy]acetate]?
**A.** % herbicidal activity (GALAP (Galium aparine)): 79%; % herbicidal activity [1]: 84%; % herbicidal activity ([2]; A-1 25, B-2 400 g ai/ha): 57%; % herbicidal activity ([2]; A-1 50, B-2 400 g ai/ha): 65%; % herbicidal activity (GLXMA (Glycine max)): 90%; % herbicidal activity ([3]; 7 DAT, A-1 12.5 g ai/ha, growth stage 22-25, height 20-25 cm): 70%; % herbicidal activity ([3]; 21 DAT, A-1 12.5 g ai/ha, growth stage 22-25, height 20-25 cm): 70%; % herbicidal activity ([3]; Table 1.28, LOLMU growth stage 11-23, height 5-10 cm, A-1 25, B-2 400 g ai/ha, 28 DAT, water 200 l/ha): 43%; % herbicidal activity ([3]; Table 6.1, LOLMU growth stage 22-25, height 20-25 cm, A-1 12.5, B-6 252 g ai/ha, 7 DAT, 200 l/ha water): 40%; % herbicidal activity ([3]; Table 6.1, LOLMU growth stage 22-25, height 20-25 cm, A-1 18, B-6 252 g ai/ha, 7 DAT, 200 l/ha water): 50%; % herbicidal activity [4]: 90%; % herbicidal activity [5]: 60%; % Herbicidal activity [6, 13]: 60%; % herbicidal activity [6, 13]: 60%; % Herbicidal activity [6, 14]: 70%; % herbicidal activity [6, 14]: 75%; % Herbicidal activity [6, 15]: 90% and 60%; % herbicidal activity [6, 15]: 70% and 60%; % Herbicidal activity [6, 16]: 70%; % herbicidal activity [6, 16]: 70% and 75%; % herbicidal activity ([6]; Table 6.1, HORVW growth stage 23-29, height 20-25 cm, A-1 12.5, B-6 150 g ai/ha, 7 DAT, 200 l/ha water): 60%; % herbicidal activity ([6]; Table 6.1, HORVW growth stage 23-29, height 20-25 cm, A-1 12.5, B-6 252 g ai/ha, 7 DAT, 200 l/ha water): 60%; % herbicidal activity ([6]; Table 6.1, HORVW growth stage 23-29, height 20-25 cm, A-1 18, B-6 150 g ai/ha, 7 DAT, 200 l/ha water): 70%; % herbicidal activity ([6]; Table 6.1, HORVW growth stage 23-29, height 20-25 cm, A-1 18, B-6 252 g ai/ha, 7 DAT, 200 l/ha water): 70%; % herbicidal activity ([7]; Table 4.2, A-1 25, B-2 655 g ai/ha): 22%; % herbicidal activity ([7]; Table 4.2, A-1 50, B-2 655 g ai/ha): 42%; % herbicidal activity ([8]; A-1 12.5, B-2 500 g ai/ha): 40%; % herbicidal activity ([8]; A-1 18, B-2 500 g ai/ha): 85%; % herbicidal activity ([9]; 7 DAT, A-1 12.5 g ai/ha, growth stage 23-30, height 15-20 cm): 20%; % herbicidal activity ([9]; 7 DAT, A-1 18 g ai/ha, growth stage 23-30, height 15-20 cm): 40%; % Herbicidal activity [9, 17]: 30% and 20%; % herbicidal activity [9, 17]: 20% and 30%; % Herbicidal activity [9, 18]: 30%; % herbicidal activity [9, 18]: 30% and 40%; % Herbicidal activity ([9]; 28 DAT, A-1 12.5 g ai/ha, growth stage 23-30, height 15-20 cm): 20%; % Herbicidal activity ([9]; 28 DAT, A-1 18 g ai/ha, growth stage 23-30, height 15-20 cm): 30%; % herbicidal activity ([9]; Table 6.1, ECHCG growth stage 23-30, height 15-20 cm, A-1 12.5, B-6 150 g ai/ha, 7 DAT, 200 l/ha water): 20%; % herbicidal activity ([9]; Table 6.1, ECHCG growth stage 23-30, height 15-20 cm, A-1 12.5, B-6 252 g ai/ha, 7 DAT, 200 l/ha water): 20%; % herbicidal activity ([9]; Table 6.1, ECHCG growth stage 23-30, height 15-20 cm, A-1 18, B-6 150 g ai/ha, 7 DAT, 200 l/ha water): 30%; % herbicidal activity ([9]; Table 6.1, ECHCG growth stage 23-30, height 15-20 cm, A-1 18, B-6 252 g ai/ha, 7 DAT, 200 l/ha water): 40%; % herbicidal activity (ZEAMX (Zea mays); 7 DAT, A-1 12.5 g ai/ha, growth stage 15-16, height 50-60 cm): 80%; % Herbicidal activity (ZEAMX (Zea mays); 21 DAT, A-1 12.5 g ai/ha, growth stage 15-16, height 27-33 cm): 35%; % herbicidal activity (ZEAMX (Zea mays); 21 DAT, A-1 12.5 g ai/ha, growth stage 15-16, height 50-60 cm): 70%; % herbicidal activity (ZEAMX (Zea mays); 28 DAT, A-1 12.5 g ai/ha, growth stage 15-16, height 50-60 cm): 50%; % Herbicidal activity (ZEAMX (Zea mays); 42 DAT, A-1 12.5 g ai/ha, growth stage 15-16, height 27-33 cm): 20%; % Herbicidal activity (ZEAMX (Zea mays); [19]): 30%; % herbicidal activity (ZEAMX (Zea mays); [19]): 20%; % herbicidal activity (ZEAMX (Zea mays); Table 1.12, ZEAMX volunteer corn, A-1 50, B-2 400 g ai/ha, 21 DAT, water 100 l/ha): 83%; % herbicidal activity (ZEAMX (Zea mays); Table 6.1, ZEAMX growth stage 15-16, height 50-60 cm, A-1 18, B-6 252 g ai/ha, 7 DAT, 200 l/ha water): 85%; % herbicidal activity (AVEFA (Avena fatua)): 70%; % herbicidal activity (CYPIR (Cyperus iria); A-1 12.5, B-2 500 g ai/ha): 30%; % herbicidal activity (CYPIR (Cyperus iria); A-1 25, B-2 500 g ai/ha): 60%; % herbicidal activity (ERISS (Erigeron sp.); A-1 25, B-2 400 g ai/ha): 13%; % herbicidal activity (ERISS (Erigeron sp.); A-1 50, B-2 400 g ai/ha): 18%; % Herbicidal activity ([10]; 7 DAT, height 10-15 cm): 75%; % Herbicidal activity ([10]; 21 DAT, height 10-15 cm): 70%; % herbicidal activity ([10]; 21 DAT, A-1 18 g ai/ha, growth stage 21-22, height 10-15 cm): 35%; % Herbicidal activity ([10]; 41 DAT, height 10-15 cm): 55%; % Herbicidal activity ([10]; 42 DAT, height 10-15 cm): 55%; % herbicidal activity ([10]; Table 4.1, DIGSA height 2-8 cm, A-1 12.5, B-2 655 g ai/ha, 21 DAT, water 140 l/ha): 27%; % herbicidal activity ([10]; Table 4.1, DIGSA height 2-8 cm, A-1 25, B-2 655 g ai/ha, 21 DAT, water 140 l/ha): 28%; % herbicidal activity ([10]; Table 4.1, DIGSA height 2-8 cm, A-1 50, B-2 655 g ai/ha, 21 DAT, water 140 l/ha): 55%; % herbicidal activity ([10]; Table 6.1, DIGSA growth stage 21-22, height 10-15 cm, A-1 18, B-6 252 g ai/ha, 7 DAT, 200 l/ha water): 40%; % herbicidal activity [11]: 61%; % herbicidal activity [12]: 22%
